Assay results as given in patent US9629851B2, “ROCK in combination with MAPK pathway” (Stichting Het Nederlands Kanker Instituut—Antoni van …, priority 2013, dated 2017).

Key:
[1] = tested on: NRAS mutant melanoma cell lines; test: short-term viability assay (CellTiter-Blue, 3 days); format: cell-based, human; conditions: treatment-naïve NRAS mutant melanoma cell lines; ROCK inhibitor added to MAPK/ERK pathway inhibitor
Procedure: FIG. 1A: NRAS mutant melanoma cell lines are sensitive to combinations of ROCK and MEK or ERK inhibitors; Cells were treated with a dilution series of ROCK inhibitor (left panel), MEK inhibitor (middle panel) or ERK inhibitor (right panel) either alone or in combination with MEK/ERK/ROCK inhibitor as indicated. After 3 days total cell numbers were determined with a Cell Titer-Blue assay. The y-axis represents the percentage of living cells.
(§1) For short-term viability assays of inhibitors, cells were plated in 96-well format and treated on the next day with a dilution range of one inhibitor with or without a second inhibitor with a concentration as mentioned in the figure. After 3 days, cells were incubated with CellTiter-Blue (Promega) and fluorescence was measured with a TECAN Infinite M200 microplate reader. For proliferation assays, equal cell numbers were plated on 6 well dishes. The next day, cells were treated with one or more inhibitors and refreshed with medium with inhibitors every 3-4 days. […]
To model inhibitor sensitivity of treatment-naïve NRAS mutant melanoma we made use of a panel of human metastatic melanoma cell lines carrying activating mutations in NRAS codon 61 (R, K, N), including cell lines available in the prior art. […] Presence of the NRAS mutation and absence of exon 15 BRAF mutations has been determined by conventional sequencing. […]

MEK = conditions: cited from earlier work
[2] = tested on: ERK inhibitor resistant sublines of BLM; test: inhibitor sensitivity of resistant sublines versus parental line; format: cell-based, human; conditions: sublines grown in 1 μM SCH772984
Procedure: NRAS Mutation: Q61R BLM, SK-MEL-147. BRAF mutation: Mel 95.03, mel 888. All cell lines were cultured in Dulbecco's modified Eagle's Medium (DMEM, Gibco) supplemented with 9% fetal calf serum (Sigma) and 1% glutamine. To generate MEK and ERK inhibitor resistant sublines, cells were plated on 10 cm dishes. Medium containing 1 μM SCH772984 was added the next day and changed twice a week. After 2 weeks colonies were picked and expanded in the presence of the inhibitor. In addition, multiple colonies per 10 cm dish were trypsinized and expanded to obtain resistant pools.
as §1, with “days. Cells were stained with crystal violet after 7-11 days of treatment.” for “days.”
We assessed sensitivity to a panel of other inhibitors including ROCK inhibitors but observed mainly slight differences.

[3] = tested on: NRAS mutant melanoma patients; conditions: cited from earlier work
[4] = tested on: BRAF mutant melanoma patients; conditions: cited from earlier work
[5] = tested on: NRAS mutant melanoma cells SK-MEL-147; test: SK-MEL-147 xenograft in NOD/SCID mice; format: in vivo; conditions: GSK1120212 0.05 mg/kg or GSK269962A 10 mg/kg alone, oral gavage once daily
Procedure: Melanoma cells (5*10^5 SK-MEL-147) were subcutaneously injected into both flanks of NOD/SCID mice. Tumor sizes were measured with a caliper and tumor volume was calculated by the formula (a*b^2)/2 with ‘a’ being the longest diameter and ‘b’ the respective perpendicular diameter of the tumor. After the tumors reached a size of 20-100 mm3, mice received by oral gavage either vehicle, GSK1120212 (MEKi), (0.05 mg/kg), 10 mg/kg GSK269962A (ROCKi) or both drugs. N=10 for each group, except for ROCKi n=8. Error bars represent standard error of the mean (SEM).
Six to ten week old male NOD/SCID mice were subcutaneously injected with 5*10^5 cells into both flanks. After the tumors reached a size of 50-150 mm^3 mice were treated with 0.05 or 0.1 mg/kg MEK inhibitor (GSK1120212) and/or ROCK inhibitor (GSK266962A, 10 mg/kg). Both GSK1120212 and GSK269962A were applied by oral gavage (in 5% Tween80, 3.25% ethanol, DMSO for GSK1120212 and in 10% Tween80, 6.5% ethanol, 10% DMSO for GSK266962A). Tumors were measured twice a week with a caliper. Tumor volume was calculated by the formula (a*b2)/2, with ‘a’ being the longest diameter and b′ the respective perpendicular diameter of the tumor. Mice were euthanized by CO2 when tumors reached a volume of 1 cm3, according to a protocol approved by the Institutional Animal Experiment Ethics Committee. […]

c-Raf = c-Raf (Homo sapiens, UniProt P04049); conditions: B-Raf less than c-Raf; cited from earlier work
c-Raf, sequence (P04049 whole entry): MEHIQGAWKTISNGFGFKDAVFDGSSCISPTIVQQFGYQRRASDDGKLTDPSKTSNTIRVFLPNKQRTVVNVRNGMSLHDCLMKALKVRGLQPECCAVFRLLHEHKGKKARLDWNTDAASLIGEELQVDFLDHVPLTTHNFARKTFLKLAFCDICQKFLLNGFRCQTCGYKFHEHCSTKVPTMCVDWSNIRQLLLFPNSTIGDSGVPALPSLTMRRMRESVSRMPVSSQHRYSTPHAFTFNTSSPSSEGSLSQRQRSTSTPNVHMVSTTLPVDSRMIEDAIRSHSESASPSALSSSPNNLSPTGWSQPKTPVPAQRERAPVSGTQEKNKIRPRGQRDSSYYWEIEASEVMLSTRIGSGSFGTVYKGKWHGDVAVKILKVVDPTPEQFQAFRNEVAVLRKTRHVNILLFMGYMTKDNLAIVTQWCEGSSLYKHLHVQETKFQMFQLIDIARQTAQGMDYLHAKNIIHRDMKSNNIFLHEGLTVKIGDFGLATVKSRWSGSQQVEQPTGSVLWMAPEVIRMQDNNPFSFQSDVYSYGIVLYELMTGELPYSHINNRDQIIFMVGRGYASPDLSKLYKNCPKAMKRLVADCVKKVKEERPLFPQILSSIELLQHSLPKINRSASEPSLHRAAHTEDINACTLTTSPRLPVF

Q: With `O=S(=O)(c1cccc2cnccc12)N1CCCNCC1` [Fasudil] as the compound, how does the “sensitization to MEK or ERK inhibitors” value [1] read?
A: sensitizers

Q: For `O=C(NOCC1CC1)c1ccc(F)c(F)c1Nc1ccc(I)cc1Cl` [PDI 84352], which “specificity and potency compared to other known MEK inhibitors” value (MEK) is on record?
A: high degree of specificity and potency

Q: For `Oc1cccc(-c2nc(N3CCOCC3)c3oc4ncccc4c3n2)c1` [PI-103], which “sensitivity of resistant sublines compared with parental line” value [2] is on record?
A: as sensitive to the dual PI3K/mTOR inhibitor PI-103 as the parental line

Q: Which results are given for `Cn1cnc2c(F)c(Nc3ccc(Br)cc3F)c(C(=O)NOCCO)cc21` [MEK162]?
A: median time to develop resistance [3]: 3.7 months; median time to develop resistance [4]: 3.3 months

Q: Which results are given for `CCn1c(-c2nonc2N)nc2cnc(Oc3cccc(NC(=O)c4ccc(OCCN5CCOCC5)cc4)c3)cc21` [GSK269962A]?
A: sensitization to MEK or ERK inhibitors [1]: sensitizers; effect as single agent [5]: only a weak effect as single agents

Q: With `Cc1ccc(NC(=O)c2cccc(N(C)C)c2)cc1NC(=O)c1ccc(O)cc1` [ZM 336372] as the compound, how does the “potency for B-Raf relative to c-Raf” value (c-Raf) read?
A: c-Raf, (B-Raf 10fold
